Experimental data published in US10407414B2, “Mannose derivatives for treating bacterial infections” (priority 2015, dated 2019).

Tested on: bacterial strain LF82 binding to the glycoprotein BSA-(Mannose)3 (FimH antagonists)
Test: Bacterial Binding Assay (BBA)
Assay type: cell-based, Escherichia coli
Settings: read-out: Bacterial Binding Assay IC50 ± SEM
Text: The purpose of the Bacterial Binding Assay (BBA) is to determine the inhibition activity of selective FimH antagonists on the bacterial strain LF82 binding to the glycoprotein BSA-(Mannose)3.
Below is a list of the Materials used to run the BBA are described below. • 1. LB broth: Supplier: Gibco, #10855 • 2. D-PBS: Supplier: Wisent, #311-425-CL • 3. LB agar plates • 4. 96-well black plate (high binding): Supplier: Costar, #3925 • 5. TopSeal™-A adhesive sealing films; Supplier PerkinElmer, #6005185 • 6. Carbonate-bicarbonate buffer pH 9.6 tablets, Supplier: Medicago, #09-8922-24 • 7. Water, Supplier: Gibco, #15230-162 • 8. Bovine serum albumin (BSA): Supplier: Sigma, #A-7888 • 9. (Man)3-BSA (α1-3, α1-6 Mannotriose-BSA, 1 mg), V-Labs, #NGP1336, lot# HGDX37-169-1 • 10. Tween 20: Supplier: Sigma, #P9416 • 11. Bright-Glo Luciferase Assay System: Supplier: Promega, #E2610 • 12. LF82/Luciferase strain: Invasive ability of an Escherichia coli strain isolated from the ileal mucosa of a patient with Crohn's disease. Boudeau J, Glasser A L, Masseret E, Joly B, Darfeuille-Michaud A, Infect Immun. 1999, 67(9), 4499-509
Solutions and buffers used to run the BBA are described below. • 1. 0.04M carbonate-bicarbonate buffer (coating buffer) • 2. 40 μg/mL BSA-(Man)3: Dissolve 1 mg of (Man)3-BSA in 25 mL of water. • 3. 4000 μg/mL BSA • 4. 40 μg/mL BSA • 5. 1 μg/mL BSA-(Man)3: 150 μL of 40 μg/mL BSA-(Man)3+5.85 mL of 40 μg/mL BSA • 6. 0.5 μg/mL BSA-(Man)3 in 0.02M carbonate-bicarbonate buffer. • 7. 20 μg/mL BSA in 0.02M carbonate-bicarbonate buffer • 8. Blocking buffer (2% BSA/DPBS): 1 g of BSA in 50 mL D-PBS • 9. 2× binding buffer (0.2% BSA/D-PBS): 5 mL of blocking buffer+45 mL D-PBS. • 10. Washing buffer (D-PBS/0.01% Tween 20): 10 μL of Tween 20 in 100 mL D-PBS. • 11. 1× Bright-Glo Luciferase substrate: Dilute 1:1 the Bright-Glo Luciferase Assay System with D-PBS
The experimental protocol used in this example to run the BBA is described below.
Overnight culture of LF82/Luciferase strain: Into two Falcon 50 mL tubes, add 20 mL of LB+20 μL of 50 mg/mL Kanamycin and inoculate with a loop from glycerol stock of the LF82/Luciferase strain. Incubate overnight at 37° C. with no shaking.
Glycoprotein coating of 96-well plates: Add 100 μL/well of 0.5-2 μg/mL BSA-(Man)3. 20 μg/mL BSA is used as the control background. Seal plate using an adhesive sealing film and incubate overnight at room temperature. Wash the 96-well plate three times with 150 μL/well of D-PBS, add 170 μL/well of blocking solution and incubate 45 min (minimum) at room temperature.
Preparation of bacterial suspension: Mix the two cultures tubes (40 mL) and perform a 1:10 dilution in LB (900 μl LB+100 μl culture. Measure optical density (OD) of the bacterial cultures. OD1 ˜5×10^8 cells/mL. Centrifuge LF82 culture for 20 min at 3500 rpm at room temperature. Re-suspend bacterial pellet in D-PBS and centrifuge again for 20 min at 3500 rpm. Re-suspend bacterial pellet in D-PBS to obtain a bacterial concentration of 2×10^9 bacteria/mL. Dilute 1/10 in D-PBS to obtain a final bacterial concentration of 2×10^8 bacteria/mL (=107 bacteria/50 μL). Perform 1/10 serial dilutions in LB of each bacterial suspension, plate 10 μL of dilutions on LB agar plates (final dilutions of 10^−7) and incubate overnight at 37° C. and count CFUs to determine the actual bacteria density in the assay.
Bacterial binding assay: Add 147 μL 2× binding buffer to compound plate (containing 3 μL of compound). After blocking step is performed (at least 45 min), wash plates three times with 200 μL/well of D-PBS. With a 100 μL multichannel manual pipettor, add 50 μL/well of compound diluted in 2× binding buffer. With a 100 μL multichannel manual pipettor, add 50 μL/well of bacterial suspension. Agitate at slow speed for 1 min and incubate 40-75 min at room temperature. Wash 5 times with 150 μL/well of washing buffer and then once with D-PBS. Add 100 μL/well of 1× Bright-Glo Luciferase substrate. […]

SMILES | IC50 [nM]
OC[C@H]1O[C@H](C#Cc2cc(C#Cc3ccccc3)cc3cn[nH]c23)[C@@H](O)[C@@H](O)[C@@H]1O [Compound 45, (2R,3S,4R,5S,6R)-2-(hydroxymethyl)-6-[2-[5-(2-phenylethynyl)-1H-indazol-7-yl]ethynyl]tetrahydropyran-3,4,5-triol] | 15 ± 3
OC[C@H]1O[C@H](C#Cc2cc(C#Cc3cccnc3)cc3cn[nH]c23)[C@@H](O)[C@@H](O)[C@@H]1O [Compound 46, (2R,3S,4R,5S,6R)-2-(hydroxymethyl)-6-[2-[5-[2-(3-pyridyl)ethynyl]-1H-indazol-7-yl]ethynyl]tetrahydropyran-3,4,5-triol] | 3 ± 1
OC[C@H]1O[C@H](C#Cc2cc(C#Cc3cccc(O)c3)cc3cn[nH]c23)[C@@H](O)[C@@H](O)[C@@H]1O [Compound 47, (2R,3S,4R,5S,6R)-2-(hydroxymethyl)-6-[2-[5-[2-(3-hydroxyphenyl)ethynyl]-1H-indazol-7-yl]ethynyl]tetrahydropyran-3,4,5-triol] | 12 ± 6
OCC#Cc1cc(C#C[C@H]2O[C@H](CO)[C@@H](O)[C@H](O)[C@@H]2O)c2[nH]ncc2c1 [Compound 48, (2R,3S,4R,5S,6R)-2-(hydroxymethyl)-6-[2-[5-(3-hydroxyprop-1-ynyl)-1H-indazol-7-yl]ethynyl]tetrahydropyran-3,4,5-triol] | 9 ± 0.7
O=S1(=O)CCN(CC#Cc2cc(C#C[C@H]3O[C@H](CO)[C@@H](O)[C@H](O)[C@@H]3O)c3[nH]ncc3c2)CC1 [Compound 49, (2R,3S,4R,5S,6R)-2-[2-[5-[3-(1,1-dioxo-1,4-thiazinan-4-yl)prop-1-ynyl]-1H-indazol-7-yl]ethynyl]-6-(hydroxymethyl)tetrahydropyran-3,4,5-triol] | 26 ± 0.5
NC1(C#Cc2cc(C#C[C@H]3O[C@H](CO)[C@@H](O)[C@H](O)[C@@H]3O)c3[nH]ncc3c2)CCCCC1 [Compound 50] | 9 ± 1
CN(CC#Cc1cc(C#C[C@H]2O[C@H](CO)[C@@H](O)[C@H](O)[C@@H]2O)c2[nH]ncc2c1)Cc1ccccc1 [Compound 51, (2R,3S,4R,5S,6R)-2-[2-[5-[3-[benzyl(methyl)amino]prop-1-ynyl]-1H-indazol-7-yl]ethynyl]-6-(hydroxymethyl)tetrahydropyran-3,4,5-triol] | 3 ± 0.4
CC(C)CNCC#Cc1cc(C#C[C@H]2O[C@H](CO)[C@@H](O)[C@H](O)[C@@H]2O)c2[nH]ncc2c1 [Compound 52, (2R,3S,4R,5S,6R)-2-(hydroxymethyl)-6-[2-[5-[3-(isobutylamino)prop-1-ynyl]-1H-indazol-7-yl]ethynyl]tetrahydropyran-3,4,5-triol] | 22 ± 10
CCN(CC)CC#Cc1cc(C#C[C@H]2O[C@H](CO)[C@@H](O)[C@H](O)[C@@H]2O)c2[nH]ncc2c1 [Compound 53, (2R,3S,4R,5S,6R)-2-[2-[5-[3-(diethylamino)prop-1-ynyl]-1H-indazol-7-yl]ethynyl]-6-(hydroxymethyl)tetrahydropyran-3,4,5-triol] | 4 ± 0.5
CCOc1cc(C)c(-c2cc(C#C[C@H]3O[C@H](CO)[C@@H](O)[C@H](O)[C@@H]3O)c3[nH]ncc3c2)cn1 [Compound 54, (2R,3S,4R,5S,6R)-2-[2-[5-(6-ethoxy-4-methyl-3-pyridyl)-1H-indazol-7-yl]ethynyl]-6-(hydroxymethyl)tetrahydropyran-3,4,5-triol] | 0.4 ± 0.1
Cc1cc(OCc2ccccc2)ncc1-c1cc(C#C[C@H]2O[C@H](CO)[C@@H](O)[C@H](O)[C@@H]2O)c2[nH]ncc2c1 [Compound 55, (2R,3S,4R,5S,6R)-2-[2-[5-(6-benzyloxy-4-methyl-3-pyridyl)-1H-indazol-7-yl]ethynyl]-6-(hydroxymethyl)tetrahydropyran-3,4,5-triol] | 2 ± 0.05
COC(=O)c1cc(C#C[C@H]2O[C@H](CO)[C@@H](O)[C@H](O)[C@@H]2O)c2[nH]ncc2c1 [Compound 57, Methyl 7-[2-[(2R,3S,4R,5S,6R)-3,4,5-trihydroxy-6-(hydroxymethyl)tetrahydropyran-2-yl]ethynyl]-1H-indazole-5-carboxylate] | 2 ± 0.6
O=C(O)c1cc(C#C[C@H]2O[C@H](CO)[C@@H](O)[C@H](O)[C@@H]2O)c2[nH]ncc2c1 [Compound 58, 7-[2-[(2R,3S,4R,5S,6R)-3,4,5-trihydroxy-6-(hydroxymethyl)tetrahydropyran-2-yl]ethynyl]-1H-indazole-5-carboxylic acid] | 74 ± 15
CN(C)C(=O)c1cc(C#C[C@H]2O[C@H](CO)[C@@H](O)[C@H](O)[C@@H]2O)c2[nH]ncc2c1 [Compound 59, N,N-dimethyl-7-[2-[(2R,3S,4R,5S,6R)-3,4,5-trihydroxy-6-(hydroxymethyl)tetrahydropyran-2-yl]ethynyl]-1H-indazole-5-carboxamide] | 0.4 ± 0.2
CN(C(=O)c1cc(C#C[C@H]2O[C@H](CO)[C@@H](O)[C@H](O)[C@@H]2O)c2[nH]ncc2c1)C1CCCCC1 [Compound 60, N-cyclohexyl-N-methyl-7-[2-[(2R,3S,4R,5S,6R)-3,4,5-trihydroxy-6-(hydroxymethyl)tetrahydropyran-2-yl]ethynyl]-1H-indazole-5-carboxamide] | 3 ± 2
O=C(c1cc(C#C[C@H]2O[C@H](CO)[C@@H](O)[C@H](O)[C@@H]2O)c2[nH]ncc2c1)N1CCOCC1 [Compound 61, morpholino-[7-[2-[(2R,3S,4R,5S,6R)-3,4,5-trihydroxy-6-(hydroxymethyl)tetrahydropyran-2-yl]ethynyl]-1H-indazol-5-yl]methanone] | 0.6 ± 0.1
CNC(=O)c1cc(C#C[C@H]2O[C@H](CO)[C@@H](O)[C@H](O)[C@@H]2O)c2[nH]ncc2c1 [Compound 62, N-methyl-7-[2-[(2R,3S,4R,5S,6R)-3,4,5-trihydroxy-6-(hydroxymethyl)tetrahydropyran-2-yl]ethynyl]-1H-indazole-5-carboxamide] | 34 ± 20
O=C(NC1CCCCC1)c1cc(C#C[C@H]2O[C@H](CO)[C@@H](O)[C@H](O)[C@@H]2O)c2[nH]ncc2c1 [Compound 63, N-cyclohexyl-7-[2-[(2R,3S,4R,5S,6R)-3,4,5-trihydroxy-6-(hydroxymethyl)tetrahydropyran-2-yl]ethynyl]-1H-indazole-5-carboxamide] | 26 ± 1
O=C(NC1CCCC1)c1cc(C#C[C@H]2O[C@H](CO)[C@@H](O)[C@H](O)[C@@H]2O)c2[nH]ncc2c1 [Compound 64, N-cyclopentyl-7-[2-[(2R,3S,4R,5S,6R)-3,4,5-trihydroxy-6-(hydroxymethyl)tetrahydropyran-2-yl]ethynyl]-1H-indazole-5-carboxamide] | 50 ± 7
CCCN(C)C(=O)c1cc(C#C[C@H]2O[C@H](CO)[C@@H](O)[C@H](O)[C@@H]2O)c2[nH]ncc2c1 [Compound 65, N-methyl-N-propyl-7-[2-[(2R,3S,4R,5S,6R)-3,4,5-trihydroxy-6-(hydroxymethyl)tetrahydropyran-2-yl]ethynyl]-1H-indazole-5-carboxamide] | 0.8 ± 0.1
